Reference: patent publication US20130004424A1, “METHODS FOR DETERMINING AGENTS TARGETING MENA ISOFORMS AND USES THEREOF FOR DIAGNOSIS AND TREATMENT OF METASTATIC TUMORS” (priority 2010, published 2013)

Key:
[1] = test system: Mena^INV cells; assay: in vivo invasion assay, collection needle containing EGF and erlotinib; details: Mena^INV cells vs MTLn3-EGFP control cells; collection needle contained both EGF and erlotinib
Description: (B) Graphic of in vivo assay with needle collection. Primary tumor may be xenograft.
Collection needle contained both EGF and erlotinib. MTLn3-EGFP cells are control. **p<0.01, ***p<0.001.
Since cells expressing Mena^+ or Mena^INV/+ will move up an EGF gradient, when the cells expressing Mena^+ or Mena^INV/+ are in vivo, the cells expressing Mena^+ or Mena^INV/+ will move up the imposed EGF gradient and can be needle collected. If the putative agent does in fact inhibit Mena^+ or Mena^INV/+, the sensitivity of cells expressing Mena^+ or Mena^INV/+ drops and fewer cells will move up the EGF gradient.

[2] = test system: Mena^INV cells; details: both in vitro and in vivo; cited from earlier work

Structure (SMILES): C#Cc1cccc(Nc2ncnc3cc(OCCOC)c(OCCOC)cc23)c1 [erlotinib]
- sensitivity of in vivo invasion to inhibition by erlotinib [1]: less sensitive to inhibition
- resistance of cells to EGFR inhibitor [2]: exhibit resistance
